Data: ChEMBL document CHEMBL1124021, “Novel type of potential anticancer agents derived from chrysophanol and emodin. Some structure-activity relationship studies” (1988)

The compounds below were run on L1210 (assay: In vitro inhibition of L1210 mouse leukemia cell proliferation.). Settings: read-out: ID50 (the source's name).
Type: functional

Structure (SMILES)	IC50 [µM]
O=C1c2cccc(O)c2C(=O)c2c(O)cc(CN(CCO)CCO)cc21	5.92
CCN(CC)Cc1cc(OC)c2c(c1)C(=O)c1cccc(O)c1C2=O	11.9
CCN(CC)Cc1cc(OC)c2c(c1)C(=O)c1cccc(OC)c1C2=O	128
CCN(CC)Cc1cc(OC)c2c(c1)C(=O)c1cc(OC)cc(OC)c1C2=O	6.91
COc1cc(OC)c2c(c1)C(=O)c1cc(CN(CCO)CCO)cc(OC)c1C2=O	> 27.6
Cc1cc(O)c2c(c1)C(=O)c1cc(O)cc(O)c1C2=O [EMODIN]	13.3
COc1cccc2c1C(=O)c1c(OC)cc(CN(CCCl)CCCl)cc1C2=O	12.5
COc1cc(OC)c2c(c1)C(=O)c1cc(CN(CCCl)CCCl)cc(O)c1C2=O	1.75
COc1cc(O)c2c(c1)C(=O)c1cc(CN(CCCl)CCCl)cc(O)c1C2=O	0.023
COc1cc(O)c2c(c1)C(=O)c1cc(CN(CCO)CCO)cc(O)c1C2=O	13.7
Cc1cc(O)c2c(c1)C(=O)c1cccc(O)c1C2=O [CHRYSOPHANOL]	> 393
COc1cccc2c1C(=O)c1c(O)cc(CN(CCO)CCO)cc1C2=O	23.4
CCN(CC)Cc1cc(O)c2c(c1)C(=O)c1cccc(O)c1C2=O	2.75
COc1cccc2c1C(=O)c1c(OC)cc(CN(CCO)CCO)cc1C2=O	> 50
COc1cc(OC)c2c(c1)C(=O)c1cc(CN(CCCl)CCCl)cc(OC)c1C2=O	2.66
COc1cc(CN(CCCl)CCCl)cc2c1C(=O)c1c(O)cccc1C2=O	1.4
O=C1c2cccc(O)c2C(=O)c2c(O)cc(CN(CCCl)CCCl)cc21	0.13
CCN(CC)Cc1cc(O)c2c(c1)C(=O)c1cc(OC)cc(O)c1C2=O	1.16
